Data on four compounds can be found in US20040039060A1, “Inhibitor for enzyme having two divalent metal ions as active centers” (priority 2000, published 2004).

Where two headings read alike, the source gives them in different places. A value given as a limit tells only on which side of the number the result lay.

Data set [1] concerns the target HIV-1 integrase (Human immunodeficiency virus type 1 group M subtype B, UniProt P04585). Description: HIV-1 integrase inhibition assay (microtiter plate, immobilised substrate DNA, Dig-labelled target DNA, OD 405 nm). Type of data set: biochemical. The protocol: Substrate DNA and target DNA, which sequences were indicated below, were synthesized by Amersham Pharmacia Biotech and dissolved in KTE buffer (composition: 100 mM KCl, 1 mM EDTA, 10 mM Tris-HCl (pH 7.6)) at concentration of 2 pmol/μl and 5 pmol/μl, respectively. The DNA solutions were annealed with each complement by slowly cooling after heating.
Streptavidin, obtained from Vector Laboratories, was dissolved in 0.1 M carbonate buffer (composition: 90 mM Na2CO3, 10 mM NaHCO3) at concentration of 40 μg/ml. After coating each well of microtiter plates (obtained from NUNC) with 50 μl of the above solution at 4° C. overnight, each well was washed twice with PBS (composition: 13.7 mM NaCl, 0.27 mM KCl, 0.43 mM Na2HPO4, 0.14 mM KH2PO4) and blocked with 300 μl of 1% skim milk in PBS for 30 min. Additionally, each well was washed twice with PBS and added 50 μl of substrate DNA solution (2 pmol/μl). The microtiter plates were kept at room temperature for 30 min. Then, each well was washed twice with PBS and once with H2O.
Subsequently, in the each well prepared above were added 45 μl of the reaction buffer prepared from 12 μl of the buffer (composition: 150 mM MOPS (pH 7.2), 75 mM MnCl2, 50 mM 2-mercaptoethanol, 25% glycerol, 500 μg/ml bovine serum albumin-fraction V), 1 μl of target DNA (5 pmol/μl), and 32 μl of the distilled water. Additionally, 6 μl of either a test compound in DMSO or DMSO for positive control(PC) was mixed with the above reaction buffer, then 9 μl of an integrase solution (30 pmol) was added and mixed well. In the well of negative control (NC) was added 9 μl of the integrase dilution buffer (composition: 20 mM MOPS (pH7.2), 400 mM potassium glutamate, 1 mM EDTA, 0.1% NP-40, 20% glycerol, 1 mM DTT, 4M urea).
The microtiter plates were incubated at 30° C. for 1 hour. The reaction solution was removed and each well was washed twice with PBS. Subsequently, each well of the microtiter plates was filled with 100 μl of anti-digoxigenin antibody labeled with alkaline phosphatase (Sheep Fab fragment: obtained from Boehringer) and incubated at 30° C. for 1 hour. Then, each well was washed twice with 0.05% Tween20 in PBS and once with PBS. Next, 150 μl of the Alkaline phosphatase reaction buffer (composition: 10 mM p-Nitrophenylphosphate (obtained from Vector Laboratories), 5 mM MgCl2, 100 mM NaCl, 100 mM Tris-HCl (pH 9.5)) was added in each well. […] The optical density (OD) at 405 nm of each well was measured and the percent inhibition was determined by the following expression.
The percent inhibition (%)=100[1-{(C abs.−NC abs.)/(PC abs.−NC abs.)}]
When the percent inhibition (%) is X % at the concentration of x μg/ml and the percent inhibition (%) is Y % at the concentration of y μg/ml, one of which is more than 50% and the other is less than 50%, IC50 can be determined by the following expression.
IC50(μg/ml)=x-{(X-50)(x-y)/(X-Y)}
Compound No. in the Table 1 is the same as compound No. of the above example.

Data set [2] can be described thus: UV spectrum measurement with stepwise addition of Mg2+ solution (chelate formation). Format: physicochemical. As to conditions: compound 0.05 mmol/l, Mg2+ 0 to 3.6 mol/l, 240 nm to 500 nm, cell length 1 cm. As for the experimental part: Compounds C-1, D-2, D-5 and D-6 were employed to determine UV spectra with treating dropwise with metal solutions.
The UV spectrum measurement was conducted with the cell length of 1 cm at a wavelength of 240 nm to 500 nm. Each test solution was obtained by preparing Solutions A^1, A2, B and C as shown below, adding an indicated volume of Solution A^1 or A2 to 1 ml of Solution B, making the total, volume 10 ml with Solution C. The concentrations of Compounds C-1, D-2, D-5 and D-6 in test solutions here were all adjusted at 0.05 mmol/l, and the concentrations of Mg^2+ were as indicated in Table 5.
Solution A1: MgCl2 4 mol/l, MOPS 50 mmol/l, NaOH 23.6 mmol/l, Solvent: Water
Solution A2: MgCl2 1 mol/l, MOPS 50 mmol/l, NaOH 23.6 mmol/l, Solvent: Water
Solution B: Compound 1 0.5 mmol/l, Solvent: DMSO
Solution C: NaCl 3 mol/l, MOPS 50 mmol/l, 23.6 mmol/l, Solvent: Water
For the purpose of indicating the change in the UV spectrum as a result of the increase in the metal ion concentration, one figure contained each UV spectrum curve at various metal ion concentrations.

The nature of data set [3]: UV spectrum measurement with monovalent ions Na+ and K+. Type of data set: physicochemical.
The mark [4] stands for this setting: concentration of the compound at percent inhibition 50%, MnCl2 buffer, 30° C., 1 hour.

`O=C(O)/C(O)=C/c1cc(CCc2ccccc2)ncn1` [Compound C-1]: in data set [1], the IC50 (commonly the concentration that inhibits the measured activity by half) is 5.55 µM. Also, in data set [2], the “change in the UV spectrum curve as the metal ion concentration was increased” value was 2-step change. In addition, the “change in the UV spectrum curve” value in data set [3] is recorded as “almost no change”.

For `O=C(O)/C=C/c1cc(CCc2ccccc2)ncn1` [Compound D-2], the IC50 in data set [1] (setting [4]) was over 100 µg/mL. Further, the “change in the UV spectrum curve as the metal ion concentration was increased” value in data set [2] is listed as “no change”.

`O=C(O)C(O)=Cc1ccnc(CCc2ccccc2)c1` [Compound D-5] returned a 50% inhibitory concentration (IC50) in data set [1] (setting [4]) of over 100 µg/mL. For the same compound, the “change in the UV spectrum curve as the metal ion concentration was increased” value in data set [2] is recorded as 1-step change.

For `OC(=Cc1cc(CCc2ccccc2)ncn1)c1ccccc1` [Compound D-6], the IC50 in data set [1] is over 331 µM. In data set [2], the “change in the UV spectrum curve as the metal ion concentration was increased” value is listed as 1-step change.
